The values below come from US20240139235A1, “IRON(III) FORMULATIONS FOR THE TREATMENT OF GASTROINTESTINAL INFLAMMATION” (PHARMANUTRA S.P.A., priority 2021, published 2024).

Assay type in all cases: in vivo
Data set [1] in a line: Body weight of mice on iron diets. The conditions noted are these: C57BL/6 male mice, diet 50 mg/kg iron for two weeks; comparison of ID, FS and SI groups (FIG. 1A). The method, then:
(§1) Thirty C57BL/6 male mice at four weeks of age were subjected to an iron deficient diet (based on the AIN-93G rodent diet, ˜1 mg kg of iron). All mice were bred in the same environment (QIMR Berghofer Animal Facility) to minimise the inherent variability in the microbiome between individual mice.
(§2) After faecal collection at six weeks of age, mice were switched from an iron deficient diet to a diet containing 50 mg/kg of iron such as ferrous sulfate (iron (II) sulfate) or Sucrosomial® iron (ten mice per group).
The remaining ten mice were a control group that remained on the deficient diet.
Faecal samples were then collected from each mouse at eight weeks of age (i.e. two weeks with diets containing iron), the mice sacrificed and the tissues collected for analysis. Liver and serum samples were collected from each animal after euthanasia and stored at −80° C. Haematological parameters were evaluated immediately after euthanasia using a “Coulter Ac-T diff Hematology Analyzer” (Beckman Coulter, Gladesville, NSW, Australia). Serum iron parameters, analysed using the Iron/TIBC Reagent Kit (Pointe Scientific, Canton, MI), and iron levels in tissues were determined as described above [Frazer, D. M., et al. Cell Mol Gastroenterol Hepatol 3, 410-421 (2017)]. […] DNA was extracted from the faecal samples and the microbial profile (QIMR Berghofer Medical Research Institute) was determined. […]

Data set [2] is described as follows: Iron status and haematological parameters of mice fed iron diets. The following applies: C57BL/6 male mice, diet 50 mg/kg iron for two weeks. Here is the method:
as §1, §2
Faecal samples were then collected from each mouse at eight weeks of age (i.e. two weeks with diets containing iron), the mice sacrificed and the tissues collected for analysis. Liver and serum samples were collected from each animal after euthanasia and stored at −80° C. Haematological parameters were evaluated immediately after euthanasia using a “Coulter Ac-T diff Hematology Analyzer” (Beckman Coulter, Gladesville, NSW, Australia). […] For the analysis of iron and haematological parameters, the statistical differences between the groups were calculated using the unidirectional ANOVA followed by the Tukey post-hoc test for the groups with equal variance or by the Games-Howell post-hoc test for those with unequal variance. Significant differences in variance were identified using the Levene test. DNA was extracted from the faecal samples and the microbial profile (QIMR Berghofer Medical Research Institute) was determined.
• ID: control group, maintained on iron deficient diet (about 1 mg/kg iron). • FS: group fed with diet containing 50 mg/kg of iron in the form of ferrous sulfate (FS abbreviation for ferrous sulfate)—Fe(II). • SI: group fed with diet containing 50 mg/kg of iron in the form of Sucrosomial® iron (SI abbreviation for sucrosomial iron)—Fe(III).
After being sacrificed at the age of eight weeks, iron levels in the liver and in the serum, as well as the haematological parameters of mice of the three groups under analysis (ID, FS and SI) were examined.

The subject of data set [3] is gut microbiome of mice. The data set is described as follows: Faecal microbiome diversity (beta and alpha diversity) in mice. The following applies: faecal samples, two weeks on diet 50 mg/kg iron. Here is the method: as §1
(§3) At six weeks of age (i.e. two weeks with an iron deficient diet), faeces were collected for microbiome analysis. This was the control sample for each mouse and it represents the basic microbiome of that particular animal when the lumen is iron deficient. […]
Faecal samples were then collected from each mouse at eight weeks of age (i.e. two weeks with diets containing iron), the mice sacrificed and the tissues collected for analysis. […] Haematological parameters were evaluated immediately after euthanasia using a “Coulter Ac-T diff Hematology Analyzer” (Beckman Coulter, Gladesville, NSW, Australia). Serum iron parameters, analysed using the Iron/TIBC Reagent Kit (Pointe Scientific, Canton, MI), and iron levels in tissues were determined as described above [Frazer, D. M., et al. Cell Mol Gastroenterol Hepatol 3, 410-421 (2017)]. […] DNA was extracted from the faecal samples and the microbial profile (QIMR Berghofer Medical Research Institute) was determined.

The subject of data set [4] is Bacteroidota. The data set is described as follows: Faecal microbiome changes at phylum level: Bacteroidota. The conditions noted are these: faecal samples, mice, two weeks on diet 50 mg/kg iron vs baseline (FIG. 5). The method, then:
as §1, §3
(§4) Faecal samples were then collected from each mouse at eight weeks of age (i.e. two weeks with diets containing iron), the mice sacrificed and the tissues collected for analysis. […] Haematological parameters were evaluated immediately after euthanasia using a “Coulter Ac-T diff Hematology Analyzer” (Beckman Coulter, Gladesville, NSW, Australia). Serum iron parameters, analysed using the Iron/TIBC Reagent Kit (Pointe Scientific, Canton, MI), and iron levels in tissues were determined as described above [Frazer, D. M., et al. Cell Mol Gastroenterol Hepatol 3, 410-421 (2017)]. […] DNA was extracted from the faecal samples and the microbial profile (QIMR Berghofer Medical Research Institute) was determined. […]

Data set [5] relates to Lachnospiraceae spp, Rikenellaceae RC9, Faecalibaculum, Colidextribacter, Oscillibacter, Parasutterella, Lactobacillus. Put plainly: Faecal microbiome changes at Amplicon Single Variant (ASV)/genus level. The following applies: faecal samples, mice, two weeks on diet 50 mg/kg iron vs baseline (FIG. 6G). The method, then:
as §1, §3, §4

Consider ferrous sulfate, for which the body weight entry in data set [1] is listed as “no significant differences”. The “iron concentration in the liver” value in data set [2] (Sucrosomial iron vs ferrous sulfate (FIG. 1B)) is “no significant differences”. The serum iron levels entry in data set [2] (Sucrosomial iron vs ferrous sulfate (FIG. 1C)) was “no significant differences”. For the same substance, the transferrin saturation entry in data set [2] (Sucrosomial iron vs ferrous sulfate (FIG. 1D)) is listed as “no significant differences”. Further, the “red blood cell count” value in data set [2] (Sucrosomial iron vs ferrous sulfate (FIG. 2A)) is given as “no significant differences”. Further, the haemoglobin entry in data set [2] (Sucrosomial iron vs ferrous sulfate (FIG. 2B)) is recorded as “no significant differences”. The haematocrit result in data set [2] (Sucrosomial iron vs ferrous sulfate (FIG. 2C)) is on record as “no significant differences”. Moreover, in data set [2] (Sucrosomial iron vs ferrous sulfate (FIG. 2D)), the mean corpuscular volume entry is listed as “no significant differences”. In addition, in data set [3] (unpaired comparison of groups (FIG. 4A)), the “Shannon index (alpha diversity) per group” value is reported as “lower”. Also, the “beta diversity (overall microbial composition, PCoA)” value in data set [3] (vs iron deficient diet (FIG. 3)) is recorded as “able to be distinguished from samples taken from mice on iron-deficient diets”. For the same substance, the “abundance of phylum Bacteroidota, change vs baseline” value in data set [4] is given as “significantly reduced”. Moreover, the “Lactobacillus at the genus level, change vs baseline” value in data set [5] is given as “no similar decrease”.
